Source: patent publication US12636260B2, “Application of α-asarone in preparation of medicine for preventing or treating hemorrhagic stroke” (CHENGDU XINRUI TAIKANG TECHNOLOGY CO., LTD., priority 2021, dated 2026)

Legend:
[1] = tested on: ICH rats; test: Ca2+ level and mitochondrial membrane potential in brain tissue, ICH rats; type: in vivo, rat; details: 12-24 hours after operation, group M
Experimental: (§1) The rats were decapitated to collect the brain 12 to 24 hours after modeling. The brain cortex around the hematoma was immediately taken to prepare a single cell suspension by enzymatic digestion (papain: 2 mg/mL; DNAase I: 0.05 mg/mL), with the cell concentration was adjusted to 5×10^6 cells/mL. 100 μL of cell suspension was incubated with 5 μM Fluo-3/AM dye solution or 10 μM Rhodamine 123 dye solution at 37° C. for 45 min. Then the cells were washed twice with PBS (phosphate buffer, pH=7.2-7.4), resuspended with 0.5 mL of PBS, and detected by a flow cytometry at the excitation wavelength of 506 nm and the emission wavelength of 526 nm. The mean fluorescence intensity of Fluo-3 and Rh123 in 10,000 cells was analyzed by FlowJo software.

[2] = tested on: SAH rats; test: Short-term neurological function of SAH rats (Garcia score, beam balance test, bleeding score); type: in vivo, rat; details: SAH model, 24 hours after modeling; group O, α-asarone emulsion oral administration 40 mg/kg
[3] = tested on: SAH rats; test: Ca2+ level and mitochondrial membrane potential in brain tissue, SAH rats; type: in vivo, rat; details: 12-24 hours after operation, group M
Experimental: as §1

[4] = tested on: ICH rats; test: Short-term neurological function of ICH rats (Garcia score, beam balance test); type: in vivo, rat; details: ICH model; for Beam balance score / Garcia score: 24 hours after modeling
Experimental: Experimental grouping: At 2 h after endovascular perforation or collagenase VII injection, Zea Longa score was used to evaluate the neurological function of rats. Successful model rats were randomly divided into groups for administration.
All groups were administrated through the tail vein injection except for group N administrated intraperitoneally.
The rats were fasted for 12 hours before operation, and were anesthetized with 4% isoflurane, and kept anesthetized with 2% isoflurane. The animals were fixed in the prone position in a stereotaxic apparatus with the body temperature maintained at about 37° C. A traditional skin incision of the head was prepared along the midline. According to the stereotaxic atlas of the rat brain translated by Zhuge Qichao (George Paxinos, Charles Watson, Paxinos, Watson, & Zhuge Qichao. The Rat Brain in Stereotaxic Coordinates [M]. People's Medical Publishing House, 2005), the right caudate nucleus of the rat was determined as 0.0 mm anterior, 3.0 mm lateral to the bregma, and 5.5 mm ventral to the cortical surface. After labeling, we drilled an open window in the skull, and 1 μL of 0.5 U collagenase VII was slowly injected for 5 minutes with a microinjector. After the injection, the needle was stagnated for 8 minutes and slowly withdrawn. Then the scalp was sutured after the burr hole of skull was sealed with a sterile bone wax, and the rats were returned to the cage for normal feeding. The sham group conducted the same procedure as the model group, but received an equal volume of physiological saline into the caudate nucleus.
According to Zea Longa's neurological function score, the rats were scored 2 hours after the operation when they were awake from anesthesia. Successful model rats with a score of 1 to 3 points were enrolled in the group: • 0 points: no neurological deficits with normal activity; • 1 point: inability to fully extend the contralateral forepaw; • 2 points: the animal appears to turn in circles when crawling; • 3 points: the animal tends to lean to the hemiplegic side; • 4 points: the animal cannot walk spontaneously or loses consciousness. 1.4 Assessment of Short-Term Neurological Function
The neurological function of rats was comprehensively evaluated with Garcia score and beam balance test 24 hours after modeling. The criteria of Garcia score are shown in Table 1, which evaluates the movement, sensation, climbing and limb symmetry of the rats with the score range of 3 to 18 points. The lower the score, the more severe the neurological injury. The criteria of the beam balance test are shown in Table 2, which evaluated the proprioception and body coordination of rats with the score range of 0 to 6 points. The higher the score, the more severe the neurological injury. Scoring was done independently by a technician blinded to the modeling and drug administration.

[5] = tested on: mouse bone marrow cells; test: Mouse bone marrow micronucleus test by flow cytometry; type: in vivo; details: mice; for MNPCE / PCE / fMNPCE (‰): 4 days
Experimental: Experimental grouping and administration: The animals were randomly divided into five groups with 10 […] in each group: blank control group (blank group, administrated blank emulsion with the same volume as the high-dose group of α-asarone), cyclophosphamide group (CTX group, 40 mg/kg), low dose of α-asarone emulsion injection group (prepared by preparation embodiment 7, 100 mg/kg/day, ASA-L group), medium dose of α-asarone emulsion injection group (prepared by preparation embodiment 7, 150 mg/kg/day, ASA-M group), and high dose of α-asarone emulsion injection group (prepared from preparation embodiment 7, 200 mg/kg/day, ASA-H group).
All drugs were administrated through the tail vein for continuous 4 days except for the single injection of the positive control drug cyclophosphamide (CTX) 24 hours before sampling. After 24 hours of the last administration, the mice were sacrificed to separate both femurs. The femoral bone marrow cells were washed with PBS and filtered by 300 mesh nylon cell sieves to prepare a single-cell suspension. The suspension was centrifuged at 1650 rpm for 5 min, and the cell concentration was adjusted to 5×10^6 cells/mL by PBS resuspension. For each sample, 100 μL of the cell suspension was incubated with 400 μL of the PIPES-PI solution (10 mL of PIPES solution (concentration of 3.5 mg/mL)+0.5 mg PI+0.01 mL Triton X-100 (concentration of 0.1%)), gently blown and mixed, at 4° C. in the dark for 30 min and detected by a flow cytometry. […] The higher the value, the stronger the genotoxicity.

[6] = Toxic and side effects observed during all the experiments; type: in vivo; details: during all the experiments of the disclosure
[7] = group H, α-asarone emulsion injection 30 mg/kg tail vein
[8] = group L, α-asarone emulsion injection 7.5 mg/kg tail vein
[9] = group M, α-asarone emulsion injection 15 mg/kg tail vein
[10] = ASA-H group, α-asarone emulsion injection 200 mg/kg/day tail vein
[11] = ASA-L group, α-asarone emulsion injection 100 mg/kg/day tail vein
[12] = ASA-M group, α-asarone emulsion injection 150 mg/kg/day tail vein

For `C/C=C/c1cc(OC)c(OC)cc1OC` [α-asarone, trans-2,4,5-trimethoxy-1-propenylbenzene], the “calcium level in brain tissue” value ([1]; Fluo-3 flow cytometry) was “significantly reduce”, the “mitochondrial membrane potential in brain tissue” value ([1]; Rhodamine 123 flow cytometry) was “stabilize” and the Beam balance score [2] was 3.30. The Garcia score [2] was 10.94, the “calcium level in brain tissue” value ([3]; Fluo-3 flow cytometry) was “significantly reduce” and the “mitochondrial membrane potential in brain tissue” value ([3]; Rhodamine 123 flow cytometry) was “stabilize”. The Beam balance score [4, 7] was 3.31, the Garcia score [4, 7] was 10.01 and the Beam balance score [4, 8] was 3.16. For the same compound, the Garcia score [4, 8] was 10.60, the Beam balance score [4, 9] was 3.09 and the Garcia score [4, 9] was 10.68. For the same compound, the “curative effect compared with group V (vinpocetine) and group N (nimodipine)” value ([4]; groups L and M, 7.5 and 15 mg/kg) was “better”, the MNPCE [5, 10] was 0.55 ± 0.43 and the PCE [5, 10] was 41.39 ± 6.11. The “fMNPCE (‰)” value [5, 10] was 12.60 ± 8.53 ‰, the MNPCE [5, 11] was 0.39 ± 0.11 and the PCE [5, 11] was 40.58 ± 9.17. The “fMNPCE (‰)” value [5, 11] was 10.10 ± 2.75 ‰, the MNPCE [5, 12] was 0.47 ± 0.19 and the PCE [5, 12] was 38.37 ± 3.18. For the same compound, the “fMNPCE (‰)” value [5, 12] was 12.34 ± 5.52 ‰, the “micronucleus rate compared to the blank emulsion group” value ([5]; different doses of α-asarone emulsion injection (100, 150, 200 mg/kg/day)) was “no significant difference” and the “changes in the micronucleus rate of mouse bone marrow cells” value ([5]; intravenous dose of up to 200 mg/kg α-asarone emulsion injection) was “no significant changes”. For the same compound, the “toxic and side effects” value [6] was “no obvious toxic and side effects”.
